The structures appear in SMILES notation. A value given as a limit tells only on which side of the number the result lay.

The test system of assay [1] is MAPK pathways (ERK, JNK, p38 MAPK) in LPS-stimulated BV2 cells. Briefly: MAPK phosphorylation (western blot) in LPS-stimulated BV2 cells. In kind it is cell-based, murine. As to conditions: 1.0, 2.0, 4.0 μM pre-treatment 3 h, LPS 1 h. The protocol:
After pre-treatment with compound 2 (1.0, 2.0, and 4.0 μM) for 3 h, the cells were stimulated with LPS for 1 h. Western blot analysis was performed to determine the phosphorylated levels of extracellular signal-regulated kinases (ERK) (p-ERK), c-Jun N-terminal kinases (JNK) (p-JNK), and p38 MAPK (p-p38 MAPK). Representative blots of three independent experiments are shown. Band intensity was quantified by densitometry and normalized to β-actin. * p < 0.05; *** p < 0.001 as compared to the LPS-treated group.
(§1) Western blot analysis was carried out according to our previous report. Briefly, cells were harvested by centrifugation at 200 g for 3 min, followed by a washing step with RIPA lysis buffer (25 mM Tris-HCl buffer (pH 7.6), 150 mM NaCl, 1% NP-40, 1% sodium deoxycholate, and 0.1% SDS). Primary antibodies (COX-2: sc-1745; iNOS: sc-650; IкB-α: sc-371; p-IкB-α: sc-8404; p50: sc-7178; and p65: sc-8008) were purchased from Santa Cruz Biotechnology, and secondary antibodies (mouse: ap124p; goat: ap106p; and rabbit: ap132p) were purchased from Millipore.

Assay [2] concerns PC12 pheochromocytoma cells. Also on record: method as in doi:10.1002/1099-0690(200105)2001:10<1963::AID-EJOC1963>3.0.CO. The settings on record: cited from earlier work.
For assay [3], the system named is IL-1β, TNF-α, IL-6, IL-12 mRNA in LPS-stimulated BV2 cells. Briefly: qRT-PCR of pro-inflammatory cytokine mRNA in LPS-stimulated BV2 cells. As to conditions: 3 h pre-treatment, LPS 1 µg/mL for 12 h. In kind it is cell-based, murine. In general terms: Real-time PCR tracks product formation cycle by cycle.
The target in assay [4] is T1, PTP1B (human, recombinant) (Homo sapiens, UniProt P18031).
T1 construct: purchased BIOMOL Research Laboratories, Inc
T1 sequence (P18031 1-435): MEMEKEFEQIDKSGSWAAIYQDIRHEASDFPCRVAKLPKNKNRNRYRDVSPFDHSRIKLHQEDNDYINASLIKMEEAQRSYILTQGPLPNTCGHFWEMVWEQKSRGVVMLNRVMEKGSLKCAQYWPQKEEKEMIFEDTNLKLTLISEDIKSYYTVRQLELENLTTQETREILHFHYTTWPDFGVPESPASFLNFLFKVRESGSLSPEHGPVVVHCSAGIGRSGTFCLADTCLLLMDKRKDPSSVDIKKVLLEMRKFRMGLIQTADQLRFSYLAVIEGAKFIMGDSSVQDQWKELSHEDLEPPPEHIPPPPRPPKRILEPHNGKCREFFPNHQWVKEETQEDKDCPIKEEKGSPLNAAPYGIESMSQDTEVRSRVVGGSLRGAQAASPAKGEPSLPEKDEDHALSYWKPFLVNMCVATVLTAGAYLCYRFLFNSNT
Nature of the assay: PTP1B enzyme assay with pNPP substrate. It counts as biochemical. As to conditions: for inhibition at 50 µM: 50 μM compound, read-out: Inhibitory Effects on PTP1B, inhibition percentage at 50 μM; for inhibition at 50 µM / IC50: pNPP substrate; for Mode of PTP1B inhibition (Lineweaver–Burk plot): pNPP 0.25-2.0 mM, Km and Vmax analysis; for IC50: mean ± SD of triplicate experiments, read-out: Inhibitory Effects on PTP1B (IC50). The protocol: In addition to the investigation of the anti-inflammatory and anti-neuroinflammatory effects of the isolated metabolites in cellular models, this study attempted to assess the inhibitory effect of the isolated compounds against PTP1B activity.
PTP1B (human, recombinant) used in the current study was purchased from BIOMOL Research Laboratories, Inc. PTP1B enzyme activity was determined using 2 mM of pNPP as a substrate in 50 mM citrate buffer solution (pH 6.0, 0.1 M NaCl, 1 mM EDTA, and 1 mM dithiothreitol). The reaction mixture was incubated at 30 °C for 30 min, and the reaction was terminated by the addition of 1 N NaOH. The amount of p-nitrophenol produced by the enzyme was estimated by measuring the increase in absorbance at 405 nm. The nonenzymatic hydrolysis of 2 mM pNPP was corrected by measuring the increase in absorbance at 405 nm in the absence of PTP1B [31]. The kinetic analysis involved the following: the assays were performed using a reaction mixture that contained different concentrations of pNPP (0.25 mM, 0.5 mM, 1.0 mM, and 2.0 mM) as a PTP1B substrate in the absence or presence of compounds 4 and 5. The Michaelis–Menten constant (Km) and maximum velocity (Vmax) of PTP1B were determined by the Lineweaver–Burk plot using the GraphPad Prism® 4 program (GraphPad Software Inc., San Diego, CA, USA).

Assay [5] concerns LPS-stimulated BV2 microglial cells. Briefly: PGE2 production in LPS-stimulated BV2 cells. It counts as cell-based, murine. As to conditions: Mus musculus, BV-2, mean ± SD of triplicate experiments, read-out: PGE2 Inhibitory Effects, BV2 Cells (IC50). The source says: (§2) LPS is a major cell wall component of Gram-negative bacteria. LPS is an intensive stimulator of macrophages and microglia, and thus treatment of these cells with LPS is frequently employed in research related to the inflammatory phenomenon. In the current study, all the isolated compounds (1–5) were investigated for their anti-neuroinflammatory and anti-inflammatory effects by examining their effects on the overproduction of NO and PGE2 in LPS-stimulated BV2 microglia and RAW264.7 macrophage cells. LPS stimulation increased the production of NO and PGE2 in both cell lines. […] Thus, this compound was selected to further examine the anti-inflammatory effect and to reveal its underlying mechanisms. […] Moreover, compound 2 attenuated the protein expression of iNOS and COX-2 in a dose-dependent manner in LPS-stimulated BV2 cells (Figure 3A).
(§3) RAW264.7 and BV2 cells were maintained at 5 × 10^5 cells/mL in Dulbecco’s modified Eagle’s medium (DMEM) containing 10% fetal bovine serum (FBS), penicillin G (100 U/mL), streptomycin (100 mg/L), and L-glutamine (2 mM) and incubated at 37 °C in a humidified atmosphere containing 5% CO2. DMEM, FBS, and other tissue culture reagents were purchased from Gibco BRL Co. Cell viability was evaluated by the MTT assay as described in our previous report.
The level of PGE2 present in each sample was determined using a commercially available kit from R&D Systems (Minneapolis, MN, USA); the details of this assay were described previously. Three independent assays were performed according to the manufacturer’s instructions.

Assay [6] concerns NF-κB pathway in LPS-stimulated BV2 cells. Nature of the assay: NF-κB pathway activation (western blot, DNA-binding ELISA) in LPS-stimulated BV2 cells. It counts as cell-based, murine. The protocol: After pre-treatment with compound 2 (1.0, 2.0, and 4.0 μM) for 3 h, the cells were stimulated with LPS for 1 h. (A–F) Proteins were obtained, and specific anti-IκB-α, anti-p- IκB-α, anti-p65, and anti-p50 antibodies were employed for western blot analysis. Representative blots of three independent experiments are shown. Band intensity was quantified by densitometry and normalized to β-actin for the cytoplasmic fraction and to proliferating cell nuclear antigen (PCNA) for the nuclear fraction. (G, H) NF-κB binding activity in the nuclear fraction was determined using an NF-κB ELISA kit by Active Motif (* p < 0.05; ** p < 0.01; *** p < 0.001) and then compared to that of the LPS-treated group.
Western blot analysis was carried out according to our previous report. Briefly, cells were harvested by centrifugation at 200 g for 3 min, followed by a washing step with RIPA lysis buffer (25 mM Tris-HCl buffer (pH 7.6), 150 mM NaCl, 1% NP-40, 1% sodium deoxycholate, and 0.1% SDS). […]
The DNA-binding activity of NF-κB in the nuclear extracts was measured using the TransAM® kit (Active Motif, Carlsbad, CA, USA); three independent assays for each sample were conducted according to the manufacturer’s instructions.

Assay [7] concerns iNOS and COX-2 protein expression in LPS-stimulated BV2 cells. Nature of the assay: Western blot of iNOS and COX-2 in LPS-stimulated BV2 cells. It counts as cell-based, murine. The settings on record: 1.0, 2.0, 4.0 μM, dose-dependent, LPS 1 μg/mL 24 h. The procedure:
Cells were pre-treated with compound 2 (1.0, 2.0, and 4.0 μM) for 3 h and stimulated with LPS (1 μg/mL) for 24 h. The representative blots of three independent analyses for iNOS and COX-2 expression are shown.
as §1

In assay [8] the test system is LPS-stimulated BV2 microglial cells. Nature of the assay: NO production (nitrite, Griess reaction) in LPS-stimulated BV2 microglial cells. In kind it is cell-based, murine. The settings on record: for IC50: Mus musculus, BV-2, mean ± SD of triplicate experiments, read-out: NO Inhibitory Effects, BV2 Cells (IC50); for Effect on alteration of NO production: 80.0 μM.
Description: as §2, §3
To determine the nitrite concentration in the medium as an indicator of NO production, the Griess reaction was carried out as described in our previous report.
Background: The Griess reaction detects nitrite, a stable product of nitric oxide.

Another assay concerns HIV-1-integrase. The settings on record: cited from earlier work.
Another assay deals with endothelin binding. The settings on record: cited from earlier work.

Take `C[C@H]1CC(=O)C2=C(O1)c1cc(O)c(O)cc1OC2` [Compound 2, neuchromenin]: in assay [1], the “Increased phosphorylation levels of ERK and JNK MAPKs” value is “unchanged”; the “LPS-induced p38 MAPK phosphorylation” value is “inhibited”. The “Neurite outgrowth in PC12 pheochromocytoma cells” value in assay [2] is recorded as “induced neurite outgrowth”. Also, the “mRNA over-expression of IL-1β, TNF-α, IL-6 and IL-12” value in assay [3] is on record as “effectively decreased”. Besides, the inhibition (usually how much of the control response was suppressed) at 50 µM in assay [4] was 37.8%. Besides, in assay [5], the IC50 – broadly, the concentration at which inhibition is half-maximal – was found to be 3.2 ± 0.2 µM. In [6] (1.0, 2.0, 4.0 μM pre-treatment 3 h, LPS 1 h), the “Activation of the NF-κB pathway (IκB-α phosphorylation/degradation, p50/p65 nuclear translocation)” value is reported as “suppressed”. Further, the “DNA binding activity of the p65 subunit” value in [6] (nuclear fraction, NF-κB ELISA kit) is listed as “decreased”. In addition, the “Protein expression of iNOS and COX-2” value in [7] is listed as “attenuated”. The IC50 in [8] turned out to be 2.7 ± 0.1 µM.
For `C/C=C/c1cc(=O)c(C(=O)c2c(OC)cc(OC)cc2C(=O)OC)co1` [Compound 5, deoxyfunicone], the “Mode of PTP1B inhibition (Lineweaver–Burk plot)” value in assay [4] was “competitive”. For the same compound, the IC50 in assay [4] amounted to 24.3 ± 1.2 µM; in assay [5], 32.3 ± 1.6 µM; in assay [8], 10.6 ± 0.5 µM. Further, the HIV-1-integrase inhibition result in the assay on HIV-1-integrase is “HIV-1-integrase inhibitor”.
As for `CC1=Cc2oc3cc(O)c(O)cc3c(=O)c2CO1` [Compound 4, myxotrichin C], in [4], the “Mode of PTP1B inhibition (Lineweaver–Burk plot)” value is “noncompetitive inhibitor”. Besides, the IC50 in assay [4] worked out at 19.2 ± 1 µM; in assay [5] it was 25.2 ± 1.3 µM; in assay [8] it was 28.1 ± 1.4 µM.
Turning to `COC(=O)c1cc(O)cc(OC)c1Oc1cc(C)cc(O)c1C(=O)O` [Compound 3, asterric acid], in assay [4], the inhibition at 50 µM is 13.7%. Besides, in the assay on endothelin binding, the Endothelin binding inhibition entry was “endothelin binding inhibitor”. For the same compound, the IC50 in assay [5] and in [8] was over 80 µM in each case. For the same compound, in [8], the “Effect on alteration of NO production” value is reported as “did not significantly affect”.
Take `COc1cc2c(cc1O)OCC1=C2O[C@@H](C)CC1=O` [Compound 1, 9-O-methylneuchromenin]: the inhibition at 50 µM in assay [4] stood at 45.7%. Also, in assay [5], the IC50 is over 80 µM. Besides, in assay [8], the “Effect on alteration of NO production” value is “did not significantly affect” and the concentration for half-maximal inhibition (IC50) is over 80 µM.

The record behind these values is PMC7281349, “Anti-Inflammatory and Protein Tyrosine Phosphatase 1B Inhibitory Metabolites from the Antarctic Marine-Derived Fungal Strain Penicillium glabrum SF-7123” (Marine Drugs, 2020).
